Measured values: patent US9403997B2, “Non-VOC neutralizing agents for coatings” (Hercules Incorporated, priority 2012, dated 2016)

Tests used:
[1] = Neutralizing agents tested in paint: viscosity, pH, gloss and yellowing compared to AMP-95 (Table 3); set-up: KU (eq) / ICI (eq): unit not given here; conditions: for pH (eq): pH of paint; for ICI (eq) / KU (eq): paint viscosity, 23PVC 50-VOC Vinyl Acrylic Semi-Gloss White, HASE thickener
Description: The neutralizing agents shown in Table 2 were further tested in a paint formulation 23[…] Vinyl Acrylic Semi-Gloss White, using a HASE thickener. Gloss measurements, as well as yellowing were compared to AMP-95.

[2] = Formulations of Table 2 tested in paint for gloss and yellowness (Table 4)
Method: The formulations shown in Table 2 were tested in 23PVC50-VOC vinyl acrylic (UCAR379G) white and tested for gloss and yellowness.

Compound | pH (eq) [1] | ICI (eq) [1] | KU (eq) [1] | pH ([2]; pH of paint, 23PVC50-VOC vinyl acrylic (UCAR379G) white) | ICI (eq) ([2]; paint viscosity) | KU (eq) ([2]; paint viscosity)
C[C@H](N)C(=O)O [L-Alanine (neutralized w/NaOH), L-Alanine] | 8.61 | 1.052 | 94.3 |  |  | 
CC(C)(N)CO [AMP-95, 2-amino-2-methyl-1-propanol, reference compound] | 8.77 | 1.110 | 95.2 | 8.78 | 1.110 | 95.2
NCC(=O)O [Glycine (neutralized w/NaOH), Glycine] | 9.7 | 1.023 | 94 |  |  | 
DL-Aspartic Acid Potassium Salt Hemihydrate | 8.54 | 1.046 | 90.8 |  |  | 
